In ChEMBL document CHEMBL1909046, “DrugMatrix in vitro pharmacology data”:

How the values were obtained:
[1] = biological target: Matrix metalloproteinase-9 (Homo sapiens, UniProt P14780); experiment: biochemical; assay type: cell-based;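 note: inhibition of isolated MMP-9 enzyme activity toward a synthetic peptide substrate, from the DrugMatrix protease screening panel; in other assays of this panel Not Active means under 50% inhibition at 10 µM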
Nitric oxide synthase 1 = Nitric oxide synthase 1 (Rattus norvegicus, UniProt P29476); assay type: tissue-based, Cerebellum; note: in other assays of this panel Not Active means under 50% inhibition at 10 µM
[2] = biological target: T1, Type-2 angiotensin II receptor (Homo sapiens, UniProt P50052); assay type: cell-based; settings: cho-k1; note: in other assays of this panel Not Active means under 50% inhibition at 10 µM
T1 sequence (P50052 whole entry): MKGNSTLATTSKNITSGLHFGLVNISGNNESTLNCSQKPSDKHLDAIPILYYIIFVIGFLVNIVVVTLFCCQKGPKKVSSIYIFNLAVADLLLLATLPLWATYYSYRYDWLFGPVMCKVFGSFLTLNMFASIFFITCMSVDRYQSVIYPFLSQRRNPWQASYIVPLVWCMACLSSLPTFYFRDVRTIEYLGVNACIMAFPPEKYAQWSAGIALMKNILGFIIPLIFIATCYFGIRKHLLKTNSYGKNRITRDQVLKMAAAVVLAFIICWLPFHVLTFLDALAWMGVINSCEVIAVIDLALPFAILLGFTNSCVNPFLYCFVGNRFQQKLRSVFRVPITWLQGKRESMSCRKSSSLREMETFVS

[3] = biological target: Protein kinase C alpha type (Homo sapiens, UniProt P17252); assay type: cell-based; settings: sf9;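 note: inhibition of PKCalpha kinase activity measured in an enzyme assay with histone as the phosphorylation substrate; in other assays of this panel Not Active means under 50% inhibition at 10 µM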
[4] = biological target: T2, 3-hydroxy-3-methylglutaryl-coenzyme A reductase (Homo sapiens, UniProt P04035); set-up: species or system Escherichia coli
T2 sequence (P04035 whole entry): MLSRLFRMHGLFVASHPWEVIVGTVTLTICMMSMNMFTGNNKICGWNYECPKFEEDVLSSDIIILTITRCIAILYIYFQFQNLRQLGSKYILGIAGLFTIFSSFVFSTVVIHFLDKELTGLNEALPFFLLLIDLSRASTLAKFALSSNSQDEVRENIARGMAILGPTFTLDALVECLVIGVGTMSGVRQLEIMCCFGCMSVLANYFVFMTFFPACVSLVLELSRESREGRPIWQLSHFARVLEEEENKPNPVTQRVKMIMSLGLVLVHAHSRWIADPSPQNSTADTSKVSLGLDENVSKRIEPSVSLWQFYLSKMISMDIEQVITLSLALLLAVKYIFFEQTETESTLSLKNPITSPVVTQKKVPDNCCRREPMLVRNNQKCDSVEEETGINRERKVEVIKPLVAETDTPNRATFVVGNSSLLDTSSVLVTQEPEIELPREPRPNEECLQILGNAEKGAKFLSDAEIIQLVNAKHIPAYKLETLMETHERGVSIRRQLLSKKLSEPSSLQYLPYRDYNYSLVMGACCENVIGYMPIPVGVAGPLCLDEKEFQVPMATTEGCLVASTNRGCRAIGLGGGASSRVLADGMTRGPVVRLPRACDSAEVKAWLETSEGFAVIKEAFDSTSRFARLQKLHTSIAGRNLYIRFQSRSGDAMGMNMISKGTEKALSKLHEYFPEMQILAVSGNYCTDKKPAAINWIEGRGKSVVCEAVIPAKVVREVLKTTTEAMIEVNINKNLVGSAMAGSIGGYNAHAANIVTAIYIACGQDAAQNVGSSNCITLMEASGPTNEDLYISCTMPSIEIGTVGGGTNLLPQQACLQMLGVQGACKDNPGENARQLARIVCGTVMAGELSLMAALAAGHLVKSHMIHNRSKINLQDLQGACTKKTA

[5] = DRUGMATRIX: Calcium Channel Type L, Dihydropyridine radioligand binding (ligand: [3H] Nitrendipine); assay type: cell membranes, Rattus norvegicus, Wistar, Cerebral cortex, Membrane; settings: Not Active = under 50% inhibition at 10 µM
[6] = biological target: Prostaglandin G/H synthase 1 (Homo sapiens, UniProt P23219); experiment: biochemical; assay type: tissue-based, Platelet
[7] = biological target: T3, Vasoactive intestinal polypeptide receptor 1 (Homo sapiens, UniProt P32241); assay type: cell membranes, Membrane; settings: ht-29; note: in other assays of this panel Not Active means under 50% inhibition at 10 µM
T3 sequence (P32241 whole entry): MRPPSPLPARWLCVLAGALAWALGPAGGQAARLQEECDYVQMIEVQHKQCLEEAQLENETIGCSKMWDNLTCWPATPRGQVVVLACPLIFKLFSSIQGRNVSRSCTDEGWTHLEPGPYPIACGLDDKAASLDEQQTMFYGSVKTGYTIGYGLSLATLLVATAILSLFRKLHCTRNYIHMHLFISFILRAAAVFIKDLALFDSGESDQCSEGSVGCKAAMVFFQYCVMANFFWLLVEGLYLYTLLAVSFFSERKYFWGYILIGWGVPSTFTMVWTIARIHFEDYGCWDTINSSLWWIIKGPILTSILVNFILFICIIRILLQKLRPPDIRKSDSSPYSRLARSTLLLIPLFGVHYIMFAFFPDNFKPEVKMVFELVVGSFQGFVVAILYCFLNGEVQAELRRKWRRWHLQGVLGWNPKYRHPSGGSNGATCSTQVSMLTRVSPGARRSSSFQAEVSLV

Prostaglandin G/H synthase 1, sequence (P23219 whole entry): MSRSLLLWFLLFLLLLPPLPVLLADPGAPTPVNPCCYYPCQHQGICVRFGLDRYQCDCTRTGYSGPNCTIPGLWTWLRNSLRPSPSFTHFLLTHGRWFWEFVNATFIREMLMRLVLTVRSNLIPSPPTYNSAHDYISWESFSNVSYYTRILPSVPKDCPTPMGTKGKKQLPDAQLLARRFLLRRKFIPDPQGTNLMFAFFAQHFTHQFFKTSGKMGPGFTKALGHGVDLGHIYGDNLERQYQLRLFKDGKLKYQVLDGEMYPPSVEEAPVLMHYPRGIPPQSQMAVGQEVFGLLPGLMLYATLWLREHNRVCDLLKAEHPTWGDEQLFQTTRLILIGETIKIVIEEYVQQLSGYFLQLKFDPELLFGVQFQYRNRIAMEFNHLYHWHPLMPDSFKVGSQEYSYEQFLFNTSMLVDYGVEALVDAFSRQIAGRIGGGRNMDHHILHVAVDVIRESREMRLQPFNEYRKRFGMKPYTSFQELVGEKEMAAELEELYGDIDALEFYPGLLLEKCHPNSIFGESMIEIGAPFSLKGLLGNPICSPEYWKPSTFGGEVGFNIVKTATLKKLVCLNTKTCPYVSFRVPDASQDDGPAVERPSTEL
Matrix metalloproteinase-9, sequence (P14780 whole entry): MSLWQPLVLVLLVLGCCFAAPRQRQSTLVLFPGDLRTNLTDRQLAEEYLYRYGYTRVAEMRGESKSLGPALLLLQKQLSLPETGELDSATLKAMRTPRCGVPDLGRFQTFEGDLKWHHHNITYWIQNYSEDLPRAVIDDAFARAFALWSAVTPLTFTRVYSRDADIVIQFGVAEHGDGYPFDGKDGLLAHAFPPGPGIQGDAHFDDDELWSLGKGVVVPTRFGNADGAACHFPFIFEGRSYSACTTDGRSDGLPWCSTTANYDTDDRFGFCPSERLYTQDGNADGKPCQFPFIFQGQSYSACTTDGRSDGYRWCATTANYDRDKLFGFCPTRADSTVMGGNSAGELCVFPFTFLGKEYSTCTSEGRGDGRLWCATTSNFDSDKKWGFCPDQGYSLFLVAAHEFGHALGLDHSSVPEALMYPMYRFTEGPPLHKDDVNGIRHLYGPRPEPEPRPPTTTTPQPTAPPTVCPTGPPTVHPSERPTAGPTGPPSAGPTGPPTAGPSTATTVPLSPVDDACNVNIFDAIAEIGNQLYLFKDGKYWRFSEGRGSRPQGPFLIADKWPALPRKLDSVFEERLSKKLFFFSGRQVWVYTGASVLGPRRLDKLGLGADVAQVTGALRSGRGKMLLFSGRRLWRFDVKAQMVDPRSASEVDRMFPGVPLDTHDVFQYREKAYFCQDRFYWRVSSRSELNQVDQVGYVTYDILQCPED
Nitric oxide synthase 1, sequence (P29476 whole entry): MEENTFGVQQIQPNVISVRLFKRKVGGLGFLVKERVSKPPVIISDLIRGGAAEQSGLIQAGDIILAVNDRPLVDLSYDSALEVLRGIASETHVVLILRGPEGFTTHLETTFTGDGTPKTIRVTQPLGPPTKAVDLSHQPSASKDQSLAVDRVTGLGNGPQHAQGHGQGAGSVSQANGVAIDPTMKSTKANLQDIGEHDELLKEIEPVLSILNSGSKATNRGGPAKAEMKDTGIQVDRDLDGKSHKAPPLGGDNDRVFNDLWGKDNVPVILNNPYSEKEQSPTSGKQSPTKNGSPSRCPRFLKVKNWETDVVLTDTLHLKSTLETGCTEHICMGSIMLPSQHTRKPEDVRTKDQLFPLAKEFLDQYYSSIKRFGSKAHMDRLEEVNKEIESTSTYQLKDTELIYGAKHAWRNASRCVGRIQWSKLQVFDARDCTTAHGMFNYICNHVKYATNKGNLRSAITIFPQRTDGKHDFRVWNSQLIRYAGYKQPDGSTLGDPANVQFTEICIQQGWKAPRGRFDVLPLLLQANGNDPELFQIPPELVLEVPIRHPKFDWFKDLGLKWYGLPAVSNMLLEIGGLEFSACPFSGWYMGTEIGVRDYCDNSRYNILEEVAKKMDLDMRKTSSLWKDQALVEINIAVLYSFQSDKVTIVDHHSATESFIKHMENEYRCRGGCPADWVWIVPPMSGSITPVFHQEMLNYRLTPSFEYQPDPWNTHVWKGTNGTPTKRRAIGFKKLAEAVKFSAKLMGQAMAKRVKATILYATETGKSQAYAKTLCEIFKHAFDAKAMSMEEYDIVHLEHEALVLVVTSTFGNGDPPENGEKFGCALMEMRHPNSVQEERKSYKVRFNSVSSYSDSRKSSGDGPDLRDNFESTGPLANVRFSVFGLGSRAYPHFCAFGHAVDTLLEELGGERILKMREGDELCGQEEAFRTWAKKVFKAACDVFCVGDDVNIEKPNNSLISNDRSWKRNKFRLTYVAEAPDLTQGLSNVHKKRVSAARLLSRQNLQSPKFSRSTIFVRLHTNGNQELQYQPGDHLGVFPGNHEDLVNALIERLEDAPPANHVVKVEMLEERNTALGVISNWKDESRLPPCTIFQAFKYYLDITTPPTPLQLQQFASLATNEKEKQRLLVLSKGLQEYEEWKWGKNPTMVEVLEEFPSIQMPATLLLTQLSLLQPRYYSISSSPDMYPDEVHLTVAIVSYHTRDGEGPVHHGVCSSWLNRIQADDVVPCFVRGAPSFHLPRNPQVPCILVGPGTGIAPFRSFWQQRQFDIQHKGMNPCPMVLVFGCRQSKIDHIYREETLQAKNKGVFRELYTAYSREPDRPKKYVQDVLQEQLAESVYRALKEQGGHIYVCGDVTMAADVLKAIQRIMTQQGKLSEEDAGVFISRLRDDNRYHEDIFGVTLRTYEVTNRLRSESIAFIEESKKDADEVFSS

| Compound | IC50 [1] | IC50 (Nitric oxide synthase 1) | IC50 [2] | IC50 [3] | IC50 [4] | IC50 [5] | Ki [5] | IC50 ([6]; platelet) | IC50 [7] | IC50 ([6]; read-out: IC50) [nM] | Ki [1] | Ki (Nitric oxide synthase 1) | Ki [2] | Ki [3] | Ki [4] | Ki ([6]; platelet) | Ki [7] | IC50 ([1]; read-out: IC50) [nM] |
| --- | --- | --- | --- | --- | --- | --- | --- | --- | --- | --- | --- | --- | --- | --- | --- | --- | --- | --- |
| CC(c1cc2ccccc2s1)N(O)C(N)=O (centres undefined) [ZILEUTON] | Not Active | Not Active | Not Active | Not Active | Not Active | Not Active | Not Active | Not Active | Not Active | – | – | – | – | – | – | – | – | – |
| O=C1Nc2ccc(Cl)cc2C(c2ccccc2Cl)=NC1O (centres undefined) [LORAZEPAM] | Not Active | Not Active | Not Active | Not Active | Not Active | Not Active | Not Active | Not Active | Not Active | – | – | – | – | – | – | – | – | – |
| CCN(CC)CCOc1ccc(/C(=C(/Cl)c2ccccc2)c2ccccc2)cc1 [ENCLOMIPHENE] | Not Active | Not Active | Not Active | Not Active | Not Active | – | – | – | Not Active | 346 | – | – | – | – | – | – | – | – |
| CC(C)Cc1ccc([C@@H](C)C(=O)O)cc1 [(R)-IBUPROPHEN] | Not Active | Not Active | Not Active | Not Active | Not Active | Not Active | Not Active | Not Active | Not Active | – | – | – | – | – | – | – | – | – |
| O=C(Nc1ccc(Br)cc1)c1cc(Br)cc(Br)c1O [TRIBROMSALAN] | Not Active | Not Active | Not Active | Not Active | Not Active | Not Active | Not Active | – | Not Active | 2070 | – | – | – | – | – | – | – | – |
| CN(C/C=C/C#CC(C)(C)C)Cc1cccc2ccccc12 [TERBINAFINE] | Not Active | Not Active | Not Active | Not Active | Not Active | Not Active | Not Active | Not Active | Not Active | – | – | – | – | – | – | – | – | – |
| Cn1c(=O)c2nc[nH]c2n(C)c1=O.O [THEOPHYLLINE] | Not Active | Not Active | Not Active | Not Active | Not Active | Not Active | Not Active | Not Active | Not Active | – | – | – | – | – | – | – | – | – |
| CC(C)NCC(O)c1ccc(NS(C)(=O)=O)cc1 (centres undefined) [SOTALOL] | Not Active | Not Active | Not Active | Not Active | Not Active | Not Active | Not Active | Not Active | Not Active | – | – | – | – | – | – | – | – | – |
| CO[C@@H]1[C@@H](OC)[C@H](C)[C@@](O)(CC(=O)O)O[C@H]1[C@H](C)[C@H]1O[C@@]2(CC[C@@](C)([C@H]3CC[C@@](C)([C@@H]4O[C@@H]([C@H]5O[C@](C)(O)[C@H](C)C[C@@H]5C)C[C@@H]4O[C@@H]4C[C@H](OC)[C@@H](OC)[C@H](C)O4)O3)O2)C[C@H](O)[C@H]1C [MADURAMICIN ACID] | Not Active | Not Active | Not Active | Not Active | Not Active | Not Active | Not Active | Not Active | Not Active | – | – | – | – | – | – | – | – | – |
| SODIUM ORTHOVANAD | Not Active | Not Active | Not Active | Not Active | Not Active | Not Active | Not Active | Not Active | Not Active | – | Not Active | Not Active | Not Active | Not Active | Not Active | Not Active | Not Active | – |
| Cc1cccc(C)c1OCC(C)N (centres undefined) [MEXILETINE] | Not Active | Not Active | Not Active | Not Active | Not Active | Not Active | Not Active | Not Active | Not Active | – | – | – | – | – | – | – | – | – |
| CC(C)NCC(O)c1ccc(O)c(O)c1 (centres undefined) [ISOPROTERENOL] | Not Active | Not Active | Not Active | Not Active | Not Active | Not Active | Not Active | Not Active | Not Active | – | – | – | – | – | – | – | – | – |
| NC1CCN(c2nc3c(cc2F)c(=O)c(C(=O)O)cn3-c2ccc(F)cc2F)C1 (centres undefined) [TOSUFLOXACIN] | Not Active | Not Active | Not Active | Not Active | Not Active | Not Active | Not Active | Not Active | Not Active | – | – | – | – | – | – | – | – | – |
| COc1ccc(CCN(C)CCCC(C#N)(c2ccc(OC)c(OC)c2)C(C)C)cc1OC (centres undefined) | Not Active | Not Active | Not Active | Not Active | Not Active | Not Active | Not Active | Not Active | Not Active | – | – | – | – | – | – | – | – | – |
| CN[C@H]1CC[C@@H](c2ccc(Cl)c(Cl)c2)c2ccccc21 [SERTRALINE] | Not Active | Not Active | Not Active | Not Active | Not Active | – | – | Not Active | Not Active | – | – | – | – | – | – | – | – | – |
| O=C(Oc1ccccc1C(=O)O)c1ccccc1O [SALSALATE] | Not Active | Not Active | Not Active | Not Active | Not Active | Not Active | Not Active | Not Active | Not Active | – | – | – | – | – | – | – | – | – |
| NC(=O)N1C(=O)/C(=C(\O)c2cccs2)c2cc(Cl)ccc21 [TENIDAP] | Not Active | Not Active | Not Active | Not Active | Not Active | Not Active | Not Active | – | Not Active | 55 | – | – | – | – | – | – | – | – |
| Fc1ccc(C(c2ccc(F)cc2)N2CCN(C/C=C/c3ccccc3)CC2)cc1 [FLUNARIZINE] | Not Active | Not Active | Not Active | Not Active | Not Active | – | – | Not Active | Not Active | – | – | – | – | – | – | – | – | – |
| CN(C)CCOC(c1ccccc1)c1ccccc1 [DIPHENHYDRAMINE] | Not Active | Not Active | Not Active | Not Active | Not Active | – | – | Not Active | Not Active | – | – | – | – | – | – | – | – | – |
| CNCCC(Oc1ccc(C(F)(F)F)cc1)c1ccccc1 (centres undefined) [FLUOXETINE] | Not Active | Not Active | Not Active | Not Active | Not Active | – | – | Not Active | Not Active | – | – | – | – | – | – | – | – | – |
| Cc1ccc(NC(=O)c2ccc(CN3CCN(C)CC3)cc2)cc1Nc1nccc(-c2cccnc2)n1 [IMATINIB] | Not Active | Not Active | Not Active | Not Active | Not Active | – | – | Not Active | Not Active | – | – | – | – | – | – | – | – | – |
| Clc1ccc(COC(Cn2ccnc2)c2ccc(Cl)cc2Cl)cc1 (centres undefined) [ECONAZOLE] | – | Not Active | Not Active | Not Active | Not Active | – | – | Not Active | Not Active | – | – | – | – | – | – | – | – | 7000 |
| CC(C)Oc1ccc2c(=O)c(-c3ccccc3)coc2c1 [IPRIFLAVONE] | Not Active | Not Active | Not Active | Not Active | Not Active | Not Active | Not Active | – | Not Active | – | – | – | – | – | – | – | – | – |
